Laboratory results as given in BindingDB's records for doi:10.1016/j.chembiol.2014.09.011 (Astrazeneca R&D, 2014).
pIC50: −log10 of the molar value.

Assays:
Experiment in all cases: AMPD Enzymatic Activity Assay
Details in all cases: pH 7.4
[1] = molecular target: T1, AMP deaminase 1 (Mus musculus, UniProt Q3V1D3)
T1 sequence (Q3V1D3 whole entry): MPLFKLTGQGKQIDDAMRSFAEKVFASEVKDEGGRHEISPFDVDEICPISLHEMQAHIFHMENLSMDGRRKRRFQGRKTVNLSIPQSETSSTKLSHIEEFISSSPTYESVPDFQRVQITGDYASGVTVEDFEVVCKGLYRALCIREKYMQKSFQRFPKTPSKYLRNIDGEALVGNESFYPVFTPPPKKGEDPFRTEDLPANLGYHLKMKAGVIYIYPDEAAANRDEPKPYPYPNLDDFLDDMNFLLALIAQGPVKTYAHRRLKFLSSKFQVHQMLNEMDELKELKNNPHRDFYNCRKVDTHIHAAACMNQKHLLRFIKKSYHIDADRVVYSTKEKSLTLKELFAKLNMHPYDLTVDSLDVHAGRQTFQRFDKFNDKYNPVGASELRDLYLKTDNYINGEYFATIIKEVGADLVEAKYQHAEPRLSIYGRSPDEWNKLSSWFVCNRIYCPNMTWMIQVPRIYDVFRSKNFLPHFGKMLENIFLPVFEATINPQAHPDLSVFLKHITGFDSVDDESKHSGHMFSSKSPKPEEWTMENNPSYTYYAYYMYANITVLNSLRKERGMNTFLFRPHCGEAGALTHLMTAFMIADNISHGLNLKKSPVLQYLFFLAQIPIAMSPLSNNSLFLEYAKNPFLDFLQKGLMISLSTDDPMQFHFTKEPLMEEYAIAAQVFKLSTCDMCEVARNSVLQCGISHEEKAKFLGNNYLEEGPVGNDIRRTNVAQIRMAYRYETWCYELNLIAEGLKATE
Procedure: (§1) AMPD1 was added to buffer A (50 mM HEPES, 150 mM KCl, 5 mM MgCl2, and 0.5 mMglutathione [pH 7.4]) to a concentration of 10 nM. A substrate mix consistingof 2mMNADPH, 6mMa-ketoglutarate, 8mMAMP, and 15 U GDH was prepared in buffer A. Substrate mix ([…]) was added to the plate, followed by centrifugation and incubation for 1 hr. Detection was by absorbance at 340 nm following the conversion of NADPH to NADP+. Recombinant AMPD enzyme activity assays were performed in a 384-well format using the same conditions as described above, except the assay volume was […] and the AMP concentration for the AMPD2 assay was 8 mM. Different AMPD enzyme concentrations were used to have linear reactions: hAMPD1 (4 nM), hAMPD2 (38 nM), hAMPD3 (1 nM), rAMPD1 (116 nM), rAMPD2 (53 nM), rAMPD3 (31 nM), and mAMPD1 (816 nM).

[2] = molecular target: T2, AMP deaminase 2 (Rattus norvegicus, UniProt Q02356)
T2 sequence (Q02356 whole entry): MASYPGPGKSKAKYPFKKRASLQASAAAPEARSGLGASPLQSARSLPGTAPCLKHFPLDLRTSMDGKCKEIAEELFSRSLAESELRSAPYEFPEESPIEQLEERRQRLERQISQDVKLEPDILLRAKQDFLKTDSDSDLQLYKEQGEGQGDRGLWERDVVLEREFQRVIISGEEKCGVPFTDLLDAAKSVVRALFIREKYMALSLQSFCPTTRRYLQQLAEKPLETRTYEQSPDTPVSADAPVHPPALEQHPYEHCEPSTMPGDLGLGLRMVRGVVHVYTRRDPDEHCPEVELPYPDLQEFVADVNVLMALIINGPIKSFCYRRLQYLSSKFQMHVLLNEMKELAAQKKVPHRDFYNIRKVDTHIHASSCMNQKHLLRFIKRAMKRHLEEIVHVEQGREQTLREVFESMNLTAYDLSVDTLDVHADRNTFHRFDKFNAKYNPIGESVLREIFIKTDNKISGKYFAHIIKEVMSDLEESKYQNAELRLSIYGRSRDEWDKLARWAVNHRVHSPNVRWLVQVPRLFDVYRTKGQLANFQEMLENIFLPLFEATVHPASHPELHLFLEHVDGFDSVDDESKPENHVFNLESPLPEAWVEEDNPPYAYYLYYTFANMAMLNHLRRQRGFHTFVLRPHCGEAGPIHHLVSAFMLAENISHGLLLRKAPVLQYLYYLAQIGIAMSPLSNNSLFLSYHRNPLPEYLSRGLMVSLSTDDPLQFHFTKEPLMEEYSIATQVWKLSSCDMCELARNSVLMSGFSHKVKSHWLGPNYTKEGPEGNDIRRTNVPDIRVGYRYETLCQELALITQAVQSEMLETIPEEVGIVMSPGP
Procedure: as §1

[3] = molecular target: T3, AMP deaminase 3 (Rattus norvegicus, UniProt O09178)
T3 sequence (O09178 whole entry): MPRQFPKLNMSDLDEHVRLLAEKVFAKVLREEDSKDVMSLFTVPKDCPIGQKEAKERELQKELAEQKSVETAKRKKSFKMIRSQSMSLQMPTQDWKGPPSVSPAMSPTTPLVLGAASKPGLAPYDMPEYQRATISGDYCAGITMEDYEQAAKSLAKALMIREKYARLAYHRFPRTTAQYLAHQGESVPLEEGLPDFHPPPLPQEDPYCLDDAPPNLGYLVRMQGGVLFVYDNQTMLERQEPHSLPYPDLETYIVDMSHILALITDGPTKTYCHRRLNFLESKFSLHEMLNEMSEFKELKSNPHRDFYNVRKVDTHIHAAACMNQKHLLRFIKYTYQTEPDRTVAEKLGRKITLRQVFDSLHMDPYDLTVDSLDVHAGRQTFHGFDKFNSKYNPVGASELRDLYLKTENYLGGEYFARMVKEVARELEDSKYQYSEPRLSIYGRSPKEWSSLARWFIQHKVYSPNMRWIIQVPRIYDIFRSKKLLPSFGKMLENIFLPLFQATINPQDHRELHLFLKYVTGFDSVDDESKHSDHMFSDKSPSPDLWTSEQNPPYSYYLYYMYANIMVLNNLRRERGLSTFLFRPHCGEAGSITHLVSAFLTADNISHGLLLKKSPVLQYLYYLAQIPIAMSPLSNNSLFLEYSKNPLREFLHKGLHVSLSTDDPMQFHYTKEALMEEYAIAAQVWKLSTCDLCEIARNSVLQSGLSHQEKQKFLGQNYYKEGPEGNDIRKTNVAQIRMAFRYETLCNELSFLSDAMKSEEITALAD
Procedure: as §1

pIC50 [1]	pIC50 [2]	pIC50 [3]	SMILES
5.35	4.49	4.36	C[C@@H](NCc1ccc(-c2ccc(C(=O)O)cn2)cc1)c1cccc2ccncc12 [6-[4-({[(1R)-1-(isoquinolin-8-yl)ethyl]amino}methyl)phenyl]pyridine-3-carboxylic acid (Compound 2)]
7.62	6.24	6.40	C[C@H](NCc1ccc(-c2ccc(C(=O)O)cn2)cc1)c1cccc2ccncc12 [6-[4-({[(1S)-1-(isoquinolin-8-yl)ethyl]amino}methyl)phenyl]pyridine-3-carboxylic acid (Compound 3)]
